The record followed here is PubChem BioAssay AID330 (DTP/NCI, 2004).

SMILES strings stand for the structures. Several values for one entry are separate records, joined by “and”; a condition that tells them apart may be missing. Identical values can stand only once. Inconclusive results and toxic doses are left out.

This assay concerns P388 leukemia ip, CD2F1 mice, survival T/C. Kind of assay: NCI In Vivo Anticancer Drug Screen. Data for tumor model P388 Leukemia (intraperitoneal) in CD2F1 (CDF1) mice. The conditions noted are these: endpoint: median survival time, higher = longer survival. The method, boiled down:
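Mice carrying the transplanted tumor received test compound or vehicle. Survival was recorded in each group, and the value is the treated-group measurement divided by that of the vehicle-treated control group.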

Where [1] appears, read: dose: 6.25 mg/kg/injection, schedule: Q01DX009 (ip), vehicle: distilled water + Tween-80.
Where [2] appears, read: dose: 12.5 mg/kg/injection, schedule: Q01DX009 (ip), vehicle: distilled water + Tween-80.
The mark [3] stands for this setting: dose: 100.0 mg/kg/injection, schedule: Q01DX009 (ip), vehicle: other.
Setting [4] is: dose: 200.0 mg/kg/injection, schedule: Q01DX009 (ip), vehicle: other.
[5] abbreviates: dose: 50.0 mg/kg/injection, schedule: Q01DX005 (ip), vehicle: saline with Tween-80.
Setting [6] is: dose: 100.0 mg/kg/injection, schedule: Q01DX005 (ip), vehicle: saline with Tween-80.
Setting [7] is: dose: 200.0 mg/kg/injection, schedule: Q01DX005 (ip), vehicle: saline with Tween-80.
Setting [8] is: dose: 50.0 mg/kg/injection, schedule: Q01DX009 (ip), vehicle: saline with Tween-80.
[9] abbreviates: dose: 100.0 mg/kg/injection, schedule: Q01DX009 (ip), vehicle: saline with Tween-80.

On to `O=C(CNC(=O)Nc1ccc(Cl)c(Cl)c1)N/N=C/c1ccccc1F`, for which the T/C is 104 % of control (dose: 3.75 mg/kg/injection, schedule: Q01DX005 (ip), vehicle: saline with Tween-80); 102 % of control (dose: 7.5 mg/kg/injection, schedule: Q01DX005 (ip), vehicle: saline with Tween-80); 102 % of control and 93 % of control (dose: 15.0 mg/kg/injection, schedule: Q01DX005 (ip), vehicle: saline with Tween-80); 95 % of control (dose: 60.0 mg/kg/injection, schedule: Q01DX005 (ip), vehicle: saline with Tween-80).

As for `CCOC(=O)CCC(NC(=O)OCCNCCCl)C(=O)OCC` (stereo not drawn), the T/C is 86 % of control (dose: 100.0 mg/kg/injection, schedule: Q01DX009 (ip), vehicle: saline); 86 % of control (dose: 200.0 mg/kg/injection, schedule: Q01DX009 (ip), vehicle: saline); 95 % of control (dose: 400.0 mg/kg/injection, schedule: Q01DX009 (ip), vehicle: saline).

For `Cc1ccc(S(=O)(=O)n2cccn2)cc1`, the T/C by setting is: under setting [1], 95 % of control; under setting [2], 100 % of control; (dose: 25.0 mg/kg/injection, schedule: Q01DX009 (ip), vehicle: distilled water + Tween-80) 94 % of control; (dose: 25.0 mg/kg/injection, schedule: Q01DX009 (ip), vehicle: other) 88 % of control; (dose: 50.0 mg/kg/injection, schedule: Q01DX009 (ip), vehicle: distilled water + Tween-80) 105 % of control; (dose: 100.0 mg/kg/injection, schedule: Q01DX009 (ip), vehicle: distilled water + Tween-80) 99 % of control. In addition, the T/C was 113 % of control under setting [3]; 104 % of control under setting [4]; 112 % of control (dose: 400.0 mg/kg/injection, schedule: Q01DX009 (ip), vehicle: other).

For the compound `COc1cc(/C=C/C(C)=N/NC(N)=O)cc(OC)c1OC`, the T/C runs as follows: (dose: 30.0 mg/kg/injection, schedule: Q01DX005 (ip), vehicle: Klucel (hydroxypropylcellulose) (HPC)) 103 % of control; (dose: 60.0 mg/kg/injection, schedule: Q01DX005 (ip), vehicle: Klucel (hydroxypropylcellulose) (HPC)) 100 % of control; (dose: 120.0 mg/kg/injection, schedule: Q01DX005 (ip), vehicle: Klucel (hydroxypropylcellulose) (HPC)) 103 % of control; (dose: 240.0 mg/kg/injection, schedule: Q01DX005 (ip), vehicle: Klucel (hydroxypropylcellulose) (HPC)) 104 % of control.

Take `[CH3][Sn]([CH3])([Cl])[CH2]CC[CH2][Sn]([Cl])([Cl])[Cl]`: the T/C (dose: 6.25 mg/kg/injection, schedule: Q01DX009 (ip), vehicle: saline) is 110 % of control and the T/C (dose: 12.5 mg/kg/injection, schedule: Q01DX009 (ip), vehicle: saline) is 99 % of control.

As for `COC(=O)C1=[N+]([O-])OC(C(=O)OC)C1c1ccc(OC)cc1` (stereo not drawn), the T/C reads like this: under setting [5], 97 % of control; under setting [6], 97 % of control; under setting [7], 98 % of control.

On to `CCCCCCCCCCN(CCCCCCCCCC)C1CC(OC2CC(O)(C(C)=O)Cc3c(O)c4c(c(O)c32)C(=O)c2c(OC)cccc2C4=O)OC(C)C1O` (stereo not drawn), for which the T/C by setting is: (dose: 3.13 mg/kg/injection, schedule: Q01DX009 (ip), vehicle: distilled water + Tween-80) 113 % of control; (dose: 4.7 mg/kg/injection, schedule: Q04DX003 (ip), vehicle: other) 104 % of control; under setting [1], 96 % of control; (dose: 9.4 mg/kg/injection, schedule: Q04DX003 (ip), vehicle: other) 104 % of control; under setting [2], 102 % of control; (dose: 18.8 mg/kg/injection, schedule: Q04DX003 (ip), vehicle: other) 112 % of control. Also, the T/C reads like this: (dose: 37.5 mg/kg/injection, schedule: Q04DX003 (ip), vehicle: other) 105 % of control; (dose: 75.0 mg/kg/injection, schedule: Q04DX003 (ip), vehicle: other) 103 % of control.

In the case of `CCOC(=O)CCC1CCCC(CCC(=O)OCC)C1=O` (stereo not drawn), the T/C is 105 % of control (dose: 50.0 mg/kg/injection, schedule: Q01DX009 (ip), vehicle: other); 101 % of control under setting [3]; 106 % of control under setting [4].

In the case of `Cc1nc2ccncn2n1`, the T/C is 99 % of control (dose: 100.0 mg/kg/injection, schedule: Q04DX003 (ip), vehicle: saline); 95 % of control (dose: 200.0 mg/kg/injection, schedule: Q04DX003 (ip), vehicle: saline); 93 % of control (dose: 400.0 mg/kg/injection, schedule: Q04DX003 (ip), vehicle: saline).

Regarding `O=C(O)C1CCCCC1Cc1ccccc1` (stereo not drawn), the T/C runs as follows: under setting [8], 109 % of control; under setting [9], 98 % of control; (dose: 200.0 mg/kg/injection, schedule: Q01DX009 (ip), vehicle: saline with Tween-80) 93 % of control.

`CCCCCC(=O)OCCN1CCN(CCCN2c3ccccc3Sc3ccc(C(F)(F)F)cc32)CC1`: the T/C (dose: 12.5 mg/kg/injection, schedule: Q01DX009 (ip), vehicle: Klucel (hydroxypropylcellulose) (HPC)) is 113 % of control and the T/C (dose: 25.0 mg/kg/injection, schedule: Q01DX009 (ip), vehicle: Klucel (hydroxypropylcellulose) (HPC)) is 101 % of control.

Regarding `C=CCOCN1c2cc(OC)c([C@@]3(C(=O)OC)C[C@@H]4CN(CCc5c3[nH]c3ccccc53)C[C@](O)(CC)C4)cc2[C@@]23CCN4CC=C[C@@](CC)([C@@H](OC(C)=O)[C@](O)(C(=O)OC)[C@H]12)[C@H]43`, the T/C was 109 % of control (dose: 1.0 mg/kg/injection, schedule: Q01DX001 (ip), vehicle: water); 111 % of control (dose: 2.0 mg/kg/injection, schedule: Q01DX001 (ip), vehicle: water); 115 % of control (dose: 4.0 mg/kg/injection, schedule: Q01DX001 (ip), vehicle: water); 158 % of control (dose: 32.0 mg/kg/injection, schedule: Q01DX001 (ip), vehicle: other).

Turning to `S=c1nc(-c2ccccn2)c(-c2ccccn2)n[nH]1`, the T/C is, setting by setting: under setting [5], 116 % of control and 117 % of control; under setting [6], 121 % of control; under setting [7], 119 % of control and 120 % of control; (dose: 400.0 mg/kg/injection, schedule: Q01DX005 (ip), vehicle: saline with Tween-80) 120 % of control.

Consider `CCCC(NC)C(CC)CN` (stereo not drawn), for which the T/C runs as follows: under setting [8], 95 % of control; under setting [9], 100 % of control.

With `N#Cc1ccc[n+](Cc2ccccc2)c1`, the T/C by setting is: under setting [5], 100 % of control; under setting [6], 103 % of control; under setting [7], 100 % of control.

In the case of `ClC(Cl)(Cl)c1cccc(C(Cl)(Cl)Cl)c1`, the T/C was 113 % of control (dose: 132.0 mg/kg/injection, schedule: Q04DX003 (ip), vehicle: Klucel (hydroxypropylcellulose) (HPC)); 100 % of control (dose: 200.0 mg/kg/injection, schedule: Q04DX003 (ip), vehicle: Klucel (hydroxypropylcellulose) (HPC)); 95 % of control (dose: 264.0 mg/kg/injection, schedule: Q04DX003 (ip), vehicle: saline with Tween-80); 113 % of control (dose: 300.0 mg/kg/injection, schedule: Q04DX003 (ip), vehicle: Klucel (hydroxypropylcellulose) (HPC)); 91 % of control (dose: 400.0 mg/kg/injection, schedule: Q04DX003 (ip), vehicle: saline with Tween-80); 108 % of control (dose: 600.0 mg/kg/injection, schedule: Q04DX003 (ip), vehicle: saline with Tween-80).

In the case of `Nc1nc(N)c2cc(CNc3ccc(Cl)c(Cl)c3)ccc2n1`, the T/C (dose: 6.25 mg/kg/injection, schedule: Q01DX009 (ip), vehicle: saline with Tween-80) was 107 % of control; the T/C (dose: 12.5 mg/kg/injection, schedule: Q01DX009 (ip), vehicle: saline with Tween-80) was 110 % of control; the T/C (dose: 25.0 mg/kg/injection, schedule: Q01DX009 (ip), vehicle: saline with Tween-80) is 109 % of control.

Take `O=NNc1cccnc1`: the T/C by setting is: (dose: 3.12 mg/kg/injection, schedule: Q01DX009 (ip), vehicle: water) 108 % of control; (dose: 6.25 mg/kg/injection, schedule: Q01DX009 (ip), vehicle: water) 101 % of control and 105 % of control; (dose: 12.5 mg/kg/injection, schedule: Q01DX009 (ip), vehicle: water) 107 % of control and 110 % of control.

Take `O=C1C=C(Br)C(=O)c2c1[nH]c(=O)[nH]c2=O`: the T/C is 117 % of control (dose: 8.0 mg/kg/injection, schedule: Q01DX005 (ip), vehicle: DMSO); 107 % of control (dose: 16.0 mg/kg/injection, schedule: Q01DX005 (ip), vehicle: DMSO); 95 % of control (dose: 32.0 mg/kg/injection, schedule: Q01DX005 (ip), vehicle: DMSO); 107 % of control (dose: 64.0 mg/kg/injection, schedule: Q01DX005 (ip), vehicle: DMSO).
